Active and inactive are the calls of the source. No cut-off for these calls is given here.
Experiments:
Rattus norvegicus [1] = experiment: Inhibition of carrageenan-induced edema in Wistar rat paw at 20 mg/kg, po after 3 hrs; format: functional
Rattus norvegicus [2] = experiment: Inhibition of carrageenan-induced edema in Wistar rat paw at 0.04 mg/kg to 0.51 mg/kg, po; format: functional, organism-based
Rattus norvegicus [3] = experiment: Inhibition of carrageenan-induced edema in Wistar rat paw at 5 mg/kg, po; format: functional, organism-based; set-up: dose 5 mg/kg
Rattus norvegicus [4] = experiment: Inhibition of carrageenan-induced edema in po dosed Wistar rat paw; format: functional

SMILES | Activity (Rattus norvegicus [2]) | further results
CC1(C)CC[C@]2(C(=O)O)CC[C@]3(C)C(=CC[C@@H]4[C@@]5(C)CC[C@H](O)C(C)(C)[C@@H]5CC[C@]43C)[C@@H]2C1 | inactive | Activity (Rattus norvegicus [1]): inactive
C[C@H]1[C@H](C)CC[C@]2(C(=O)O[C@@H]3O[C@H](CO)[C@@H](O)[C@H](O)[C@H]3O)CC[C@]3(C(=O)O)C(=CC[C@@H]4[C@@]5(C)CC[C@H](O[C@@H]6O[C@H](C)[C@@H](O)[C@H](O)[C@H]6O)C(C)(C)[C@@H]5CC[C@]43C)[C@H]12 | inactive | –
C=C[C@H]1[C@H](O[C@@H]2O[C@H](CO)[C@@H](O)[C@H](O)[C@H]2O)OC=C(C(=O)OC)[C@H]1C[C@@H]1N[C@@H](C(=O)O)Cc2c1[nH]c1ccccc21 | inactive | –
C[C@H]1[C@H](C)CC[C@]2(C(=O)O[C@@H]3O[C@H](CO)[C@@H](O)[C@H](O)[C@H]3O)CC[C@]3(C(=O)O)C(=CC[C@@H]4[C@@]5(C)CC[C@H](O[C@@H]6O[C@H](C)[C@H](O)[C@H](O)[C@H]6O)C(C)(C)[C@@H]5CC[C@]43C)[C@H]12 | inactive | –
C[C@@H]1CC[C@]2(C(=O)O)CC[C@]3(C)C(=CC[C@@H]4[C@@]5(C)CC[C@H](O)C(C)(C)[C@@H]5[C@H](O)C[C@]43C)[C@@H]2[C@]1(C)O | inactive | Activity (Rattus norvegicus [1]): inactive
C[C@H]1[C@H](C)CC[C@]2(C(=O)O)CC[C@]3(C(=O)O[C@@H]4O[C@H](CO)[C@@H](O)[C@H](O)[C@H]4O)C(=CC[C@@H]4[C@@]5(C)CC[C@H](O[C@@H]6O[C@H](C)[C@@H](O)[C@H](O)[C@H]6O)C(C)(C)[C@@H]5CC[C@]43C)[C@H]12 | inactive | Activity (Rattus norvegicus [1]): 33%
COc1ccc2c(c1)c(CC(=O)O)c(C)n2C(=O)c1ccc(Cl)cc1 [INDOMETHACIN] | – | Activity (Rattus norvegicus [3]): Active; ED50 (Rattus norvegicus [4]): 0.014 mmol
C[C@H]1[C@H](C)CC[C@]2(C(=O)O)CC[C@]3(C(=O)O[C@@H]4O[C@H](CO)[C@@H](O)[C@H](O)[C@H]4O)C(=CC[C@@H]4[C@@]5(C)CC[C@H](O[C@@H]6O[C@H](C)[C@H](O)[C@H](O)[C@H]6O)C(C)(C)[C@@H]5CC[C@]43C)[C@H]12 | inactive | –
C[C@H]1[C@H](C)CC[C@]2(C(=O)O[C@@H]3O[C@H](CO)[C@@H](O)[C@H](O)[C@H]3O)CC[C@]3(C(=O)O)C(=CC[C@@H]4[C@@]5(C)CC[C@H](O[C@@H]6O[C@H](C)[C@H](O)[C@H](O[C@@H]7O[C@H](CO)[C@@H](O)[C@H](O)[C@H]7O)[C@H]6O)C(C)(C)[C@@H]5CC[C@]43C)[C@H]12 | inactive | –
C[C@H]1[C@H](C)CC[C@]2(C(=O)O)CC[C@]3(C)C(=CC[C@@H]4[C@@]5(C)CC[C@H](O)C(C)(C)[C@@H]5CC[C@]43C)[C@H]12 | inactive | –
COC(=O)[C@]12CC[C@@H](C)[C@@](C)(O)[C@H]1C1=CC[C@@H]3[C@@]4(C)CC[C@H](O)[C@@](C)(C(=O)OC)[C@@H]4[C@H](O)C[C@@]3(C)[C@]1(C)CC2 | inactive | –
C[C@H]1[C@H](C)CC[C@]2(C(=O)O)CC[C@]3(C(=O)O[C@@H]4O[C@H](CO)[C@@H](O)[C@H](O)[C@H]4O)C(=CC[C@@H]4[C@@]5(C)CC[C@H](O[C@@H]6O[C@H](C)[C@H](O)[C@H](O[C@@H]7O[C@H](CO)[C@@H](O)[C@H](O)[C@H]7O)[C@H]6O)C(C)(C)[C@@H]5CC[C@]43C)[C@H]12 | inactive | –
C[C@H]1[C@H](C)CC[C@]2(C(=O)O)CC[C@]3(C(=O)O)C(=CC[C@@H]4[C@@]5(C)CC[C@H](O[C@@H]6O[C@H](C)[C@H](O)[C@H](O[C@@H]7O[C@H](CO)[C@@H](O)[C@H](O)[C@H]7O)[C@H]6O)C(C)(C)[C@@H]5CC[C@]43C)[C@H]12 | inactive | –
